Literature values as cited in patent US20060264381A1, “Methods of treating obsessive compulsive disorder” (priority 2005, published 2006).

Legend:
[1] = test system: synaptosomes prepared from the cortex of Fmr1 KO mice
[2] = test system: Gp1 mGluR5 on cultured hippocampal neurons
[3] = test system: cultured cortical neurons; conditions: cultures prepared from Fmr1 knockout (KO) mice lacking FMRP
[4] = test system: Drosophila mGluR, DmGluRA; conditions: flies lacking dfmr1 raised with food containing drug
[5] = target: T1, mGluR5 (Mus musculus, UniProt Q3UVX5); conditions: slices from the Fmr1 KO mouse
T1 construct: from tissue; host or cells: brain slices from Fmr1 knockout mouse (hippocampal area CA3 by context)
T1 sequence (Q3UVX5 19-1203): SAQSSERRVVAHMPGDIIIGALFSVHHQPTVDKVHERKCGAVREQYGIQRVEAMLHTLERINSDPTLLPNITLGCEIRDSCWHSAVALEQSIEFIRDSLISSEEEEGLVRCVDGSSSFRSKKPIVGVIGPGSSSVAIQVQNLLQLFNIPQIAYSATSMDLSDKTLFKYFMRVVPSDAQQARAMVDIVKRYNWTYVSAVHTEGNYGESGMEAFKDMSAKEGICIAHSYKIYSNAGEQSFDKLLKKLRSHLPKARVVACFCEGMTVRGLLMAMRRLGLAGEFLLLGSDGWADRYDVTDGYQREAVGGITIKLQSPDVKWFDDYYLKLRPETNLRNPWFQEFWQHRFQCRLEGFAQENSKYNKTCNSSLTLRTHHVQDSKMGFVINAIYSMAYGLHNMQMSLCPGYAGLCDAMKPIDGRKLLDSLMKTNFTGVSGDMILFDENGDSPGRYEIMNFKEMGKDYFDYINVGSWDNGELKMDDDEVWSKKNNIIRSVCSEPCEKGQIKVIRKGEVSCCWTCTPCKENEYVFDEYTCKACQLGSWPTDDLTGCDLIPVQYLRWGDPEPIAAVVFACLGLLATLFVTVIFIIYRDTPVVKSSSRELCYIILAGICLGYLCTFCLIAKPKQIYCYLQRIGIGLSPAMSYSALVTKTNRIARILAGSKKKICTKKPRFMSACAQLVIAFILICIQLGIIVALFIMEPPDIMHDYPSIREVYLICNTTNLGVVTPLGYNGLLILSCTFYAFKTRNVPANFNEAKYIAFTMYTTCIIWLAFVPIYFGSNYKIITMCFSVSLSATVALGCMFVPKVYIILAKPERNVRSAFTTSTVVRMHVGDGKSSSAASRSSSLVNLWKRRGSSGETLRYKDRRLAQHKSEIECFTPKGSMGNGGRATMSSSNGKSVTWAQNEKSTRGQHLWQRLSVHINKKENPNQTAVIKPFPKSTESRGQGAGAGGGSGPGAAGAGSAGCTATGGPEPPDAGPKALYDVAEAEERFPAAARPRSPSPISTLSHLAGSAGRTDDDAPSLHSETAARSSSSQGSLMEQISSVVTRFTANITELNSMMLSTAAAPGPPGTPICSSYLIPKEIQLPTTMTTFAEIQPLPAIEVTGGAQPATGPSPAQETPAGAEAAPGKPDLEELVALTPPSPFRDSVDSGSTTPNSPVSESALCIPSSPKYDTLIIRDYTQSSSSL

Structure (SMILES) | polyribosome assembly [1] | delivery of FMRP to dendrites ([2]; cultured hippocampal neurons) | loss of AMPA receptors from synapses ([2]; cultured hippocampal neurons) | proportion of long, thin dendritic spines ([2]; prolonged treatment of hippocampal neurons) | PSD-95 levels [3] | rescue of phenotypes in mutant flies (altered courtship behavior, decreased memory in conditioned courtship assay, mushroom body structure) [4] | ictal-like activity emerging spontaneously in slices [5]
N[C@@H](C(=O)O)c1cc(O)cc(O)c1 (racemic) [DHPG, (R,S)-3,5-dihydroxyphenylglycine] | fails to stimulate polyribosome assembly | triggers the delivery of FMRP to dendrites | stimulates the loss of AMPA receptors from synapses | increased the proportion of long, thin dendritic spines | fails to increase PSD-95 levels |  | 
Cc1cccc(C#Cc2ccccc2)n1 [MPEP, 2-methyl-6-(phenylethynyl)-pyridine] |  |  |  |  |  | rescued | reversed
